Source: patent US20240109865A1, “INDAZOLE COMPOUNDS AS KINASE INHIBITORS” (TYRA BIOSCIENCES, INC., priority 2020, published 2024)

Assays:
Experiment in all cases: Kinase assay, binding constants (Kd), kinase-tagged T7 phage, qPCR
FGFR3 = FGFR3 (Homo sapiens (Human), UniProt P22607)
In short: (§1)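 Competition binding: kinase-tagged T7 phage lysates mixed with immobilized biotinylated ligand on streptavidin beads plus compound (11-point 3-fold dilution series, 0.9% DMSO final). Bound kinase eluted with free ligand and quantified by qPCR. Kd from Hill equation fit, slope fixed at −1.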

FGFR2 = FGFR2 (Homo sapiens (Human), UniProt P21802)
In short: as §1

FGFR3 (V555M) = FGFR3 (V555M) (Homo sapiens (Human), UniProt P22607, V555M); details: V555M mutant
In short: as §1

FGFR4 = FGFR4 (Homo sapiens (Human), UniProt P22455)
In short: as §1

FGFR1 = FGFR1 (Homo sapiens (Human), UniProt P11362)
In short: as §1

FGFR1, sequence (P11362 22-822): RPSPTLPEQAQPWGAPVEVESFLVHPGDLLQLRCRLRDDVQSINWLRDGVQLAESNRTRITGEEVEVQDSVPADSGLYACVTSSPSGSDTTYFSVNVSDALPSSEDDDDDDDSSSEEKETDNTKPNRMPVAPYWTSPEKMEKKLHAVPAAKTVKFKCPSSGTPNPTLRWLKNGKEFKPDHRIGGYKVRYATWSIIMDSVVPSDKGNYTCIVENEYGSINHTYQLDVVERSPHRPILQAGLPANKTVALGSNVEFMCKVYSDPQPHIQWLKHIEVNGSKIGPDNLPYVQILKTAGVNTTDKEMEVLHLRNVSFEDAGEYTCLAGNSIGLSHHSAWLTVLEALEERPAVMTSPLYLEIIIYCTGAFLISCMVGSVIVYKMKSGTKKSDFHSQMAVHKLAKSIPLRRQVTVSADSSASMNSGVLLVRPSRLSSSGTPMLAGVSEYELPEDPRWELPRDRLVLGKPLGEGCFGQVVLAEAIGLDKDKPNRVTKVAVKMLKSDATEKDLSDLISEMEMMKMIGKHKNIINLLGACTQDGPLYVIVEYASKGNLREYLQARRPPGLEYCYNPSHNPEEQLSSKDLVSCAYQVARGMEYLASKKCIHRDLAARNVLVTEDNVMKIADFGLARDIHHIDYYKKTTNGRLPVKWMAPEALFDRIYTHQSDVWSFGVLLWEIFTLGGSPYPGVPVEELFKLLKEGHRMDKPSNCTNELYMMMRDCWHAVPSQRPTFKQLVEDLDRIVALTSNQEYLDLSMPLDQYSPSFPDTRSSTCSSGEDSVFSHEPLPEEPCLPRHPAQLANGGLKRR
FGFR2, sequence (P21802 22-821): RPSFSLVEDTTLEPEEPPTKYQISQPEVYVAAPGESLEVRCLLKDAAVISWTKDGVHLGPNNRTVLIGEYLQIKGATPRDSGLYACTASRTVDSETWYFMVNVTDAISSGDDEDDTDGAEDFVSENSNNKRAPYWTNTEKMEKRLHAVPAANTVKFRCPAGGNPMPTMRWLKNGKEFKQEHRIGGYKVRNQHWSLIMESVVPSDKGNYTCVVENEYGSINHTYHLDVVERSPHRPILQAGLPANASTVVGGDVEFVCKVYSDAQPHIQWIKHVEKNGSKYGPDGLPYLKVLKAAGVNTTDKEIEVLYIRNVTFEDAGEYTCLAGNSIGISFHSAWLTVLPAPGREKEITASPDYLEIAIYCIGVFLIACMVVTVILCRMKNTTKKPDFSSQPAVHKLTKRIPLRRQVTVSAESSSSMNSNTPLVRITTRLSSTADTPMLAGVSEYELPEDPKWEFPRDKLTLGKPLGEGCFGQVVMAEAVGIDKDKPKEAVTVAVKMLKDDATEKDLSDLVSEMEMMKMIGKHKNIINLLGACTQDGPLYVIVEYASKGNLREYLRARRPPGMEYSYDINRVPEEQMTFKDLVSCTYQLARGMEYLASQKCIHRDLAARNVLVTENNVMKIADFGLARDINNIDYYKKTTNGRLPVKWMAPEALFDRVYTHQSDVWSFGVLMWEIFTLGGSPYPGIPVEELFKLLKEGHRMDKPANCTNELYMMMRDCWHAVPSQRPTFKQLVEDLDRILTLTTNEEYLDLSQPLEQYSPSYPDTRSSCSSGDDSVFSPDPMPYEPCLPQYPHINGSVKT
FGFR4, sequence (P22455 22-802): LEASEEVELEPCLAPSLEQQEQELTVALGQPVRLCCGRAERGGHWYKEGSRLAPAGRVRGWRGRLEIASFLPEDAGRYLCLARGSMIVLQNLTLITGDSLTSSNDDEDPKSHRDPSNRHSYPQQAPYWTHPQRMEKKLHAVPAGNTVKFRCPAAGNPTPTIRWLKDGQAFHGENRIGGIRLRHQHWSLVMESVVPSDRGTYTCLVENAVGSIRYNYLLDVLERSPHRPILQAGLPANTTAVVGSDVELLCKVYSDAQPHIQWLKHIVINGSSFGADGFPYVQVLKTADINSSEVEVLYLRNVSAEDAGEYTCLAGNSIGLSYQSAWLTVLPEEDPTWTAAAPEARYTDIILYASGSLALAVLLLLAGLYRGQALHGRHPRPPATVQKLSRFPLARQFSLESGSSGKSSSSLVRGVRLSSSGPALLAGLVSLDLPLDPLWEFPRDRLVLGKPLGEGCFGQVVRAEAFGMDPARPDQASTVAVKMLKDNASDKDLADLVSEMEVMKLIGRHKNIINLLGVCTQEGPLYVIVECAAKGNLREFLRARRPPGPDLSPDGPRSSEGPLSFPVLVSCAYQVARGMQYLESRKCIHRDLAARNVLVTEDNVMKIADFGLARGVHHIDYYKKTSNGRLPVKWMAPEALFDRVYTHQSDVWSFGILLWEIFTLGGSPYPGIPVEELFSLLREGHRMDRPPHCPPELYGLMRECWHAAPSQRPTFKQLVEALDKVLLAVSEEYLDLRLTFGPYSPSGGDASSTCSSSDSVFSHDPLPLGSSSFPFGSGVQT
FGFR3 (V555M), sequence (P22607 23-806 V555M): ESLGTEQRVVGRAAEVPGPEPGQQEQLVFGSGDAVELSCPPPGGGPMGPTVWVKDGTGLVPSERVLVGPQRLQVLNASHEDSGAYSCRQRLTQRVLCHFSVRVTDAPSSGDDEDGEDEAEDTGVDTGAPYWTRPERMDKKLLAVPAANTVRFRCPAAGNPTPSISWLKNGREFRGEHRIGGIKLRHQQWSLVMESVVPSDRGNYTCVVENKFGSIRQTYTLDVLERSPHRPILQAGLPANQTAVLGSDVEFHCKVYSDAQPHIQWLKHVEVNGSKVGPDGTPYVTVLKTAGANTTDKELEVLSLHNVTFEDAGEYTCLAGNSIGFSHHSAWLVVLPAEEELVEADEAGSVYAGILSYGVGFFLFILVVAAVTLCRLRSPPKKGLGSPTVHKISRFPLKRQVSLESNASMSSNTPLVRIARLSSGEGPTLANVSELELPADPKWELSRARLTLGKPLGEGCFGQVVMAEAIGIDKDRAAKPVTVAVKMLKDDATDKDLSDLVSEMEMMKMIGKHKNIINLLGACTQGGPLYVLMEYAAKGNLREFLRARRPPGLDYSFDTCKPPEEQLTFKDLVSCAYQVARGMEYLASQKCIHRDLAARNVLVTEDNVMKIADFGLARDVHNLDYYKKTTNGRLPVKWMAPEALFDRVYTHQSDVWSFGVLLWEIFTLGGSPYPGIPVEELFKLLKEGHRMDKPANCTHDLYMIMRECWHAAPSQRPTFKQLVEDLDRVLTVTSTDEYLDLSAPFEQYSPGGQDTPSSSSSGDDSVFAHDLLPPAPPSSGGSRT
FGFR3, sequence (P22607 23-806): as the sequence (P22607 23-806 V555M) above, with M533V counted along it

Structure (SMILES) | Kd (FGFR3) [nM] | Kd (FGFR2) [nM] | Kd (FGFR3 (V555M)) [nM] | Kd (FGFR4) [nM] | Kd (FGFR1) [nM]
CCOC(=O)N1CC2(C1)CN(c1ccc(-c3n[nH]c4ccc(O[C@H](C)c5c(Cl)cnc(F)c5Cl)cc34)cn1)C2 [Example 196, ethyl 6-[5-[5-[(1R)-1-(3,5-dichloro-2-fluoro-4-pyridyl)ethoxy]-1H-indazol-3-yl]-2-pyridyl]-2,6-diazaspiro[3.3]heptane-2-carboxylate] | 1 to 20 | 100 to 300 | 1 to 20 | 20 to 100 | 100 to 300
COc1c(O[C@H](C)c2c(C)cnnc2C)ccc2[nH]nc(-c3ccc(N4CC5(C4)CN(S(C)(=O)=O)C5)nc3)c12 [Example 200, 5-[(1R)-1-(3,5-dimethylpyridazin-4-yl)ethoxy]-4-methoxy-3-[6-(2-methylsulfonyl-2,6-diazaspiro[3.3]heptan-6-yl)-3-pyridyl]-1H-indazole] | > 300 | > 300 | 100 to 300 | > 300 | > 300
COc1cc2[nH]nc(-c3ccc(N4CC5(COC5)C4)nc3)c2cc1O[C@H](C)c1c(C)cnnc1C [Example 202, 6-[5-[5-[(1R)-1-(3,5-dimethylpyridazin-4-yl)ethoxy]-6-methoxy-1H-indazol-3-yl]-2-pyridyl]-2-oxa-6-azaspiro[3.3]heptane] | 1 to 20 | 1 to 20 | 1 to 20 | 1 to 20 | 1 to 20
Cc1cnnc(C)c1[C@@H](C)Oc1ccc2[nH]nc(-c3ccc(N4CC5(COC5)C4)nc3)c2c1 [Example 205, 6-[5-[5-[(1R)-1-(3,5-dimethylpyridazin-4-yl)ethoxy]-1H-indazol-3-yl]-2-pyridyl]-2-oxa-6-azaspiro[3.3]heptane] | 1 to 20 | 1 to 20 | 1 to 20 | 1 to 20 | 1 to 20
Cc1cnnc(C)c1[C@@H](C)Oc1ccc2[nH]nc(-c3ccc(N4CC5(CCOC5)C4)nc3)c2c1 [Example 206, (R)-2-(5-(5-(1-(3,5-dimethylpyridazin-4-yl)ethoxy)-1H-indazol-3-yl)pyridin-2-yl)-6-oxa-2-azaspiro[3.4]octane] | 1 to 20 | 1 to 20 | 1 to 20 | 1 to 20 | 1 to 20
COc1cc2[nH]nc(-c3ccc(N4CC5(C4)CN(S(C)(=O)=O)C5)nc3)c2cc1O[C@H](C)c1c(Cl)cnc(C)c1Cl [Example 207, 5-[(1R)-1-(3,5-dichloro-2-methyl-4-pyridyl)ethoxy]-6-methoxy-3-[6-(2-methylsulfonyl-2,6-diazaspiro[3.3]heptan-6-yl)-3-pyridyl]-1H-indazole] | 1 to 20 | 1 to 20 | 1 to 20 | 1 to 20 | 1 to 20
COc1cc2[nH]nc(-c3ccc(N4CC(O)C4)nc3)c2cc1O[C@H](C)c1c(Cl)cnc(C)c1Cl [Example 208, 1-[5-[5-[(1R)-1-(3,5-dichloro-2-methyl-4-pyridyl)ethoxy]-6-methoxy-1H-indazol-3-yl]-2-pyridyl]azetidin-3-ol] | 1 to 20 | 1 to 20 | 1 to 20 | 1 to 20 | 20 to 100
COC1(C)CN(c2ccc(-c3n[nH]c4ccc(O[C@H](C)c5c(Cl)cnc(C)c5Cl)cc34)cn2)C1 [Example 210, 5-[(1R)-1-(3,5-dichloro-2-methyl-4-pyridyl)ethoxy]-3-[6-(3-methoxy-3-methyl-azetidin-1-yl)-3-pyridyl]-1H-indazole] | 1 to 20 | 1 to 20 | 1 to 20 | 1 to 20 | 20 to 100
COc1cc2[nH]nc(-c3ccc(N4CC5(COC5)C4)nc3)c2cc1O[C@H](C)c1c(Cl)cnc(C)c1Cl [Example 211, 6-[5-[5-[(1R)-1-(3,5-dichloro-2-methyl-4-pyridyl)ethoxy]-6-methoxy-1H-indazol-3-yl]-2-pyridyl]-2-oxa-6-azaspiro[3.3]heptane] | 1 to 20 | 1 to 20 | 1 to 20 | 1 to 20 | 1 to 20
Cc1ncc(Cl)c([C@@H](C)Oc2ccc3[nH]nc(-c4ccc(N5CC6(CCC6)C5)nc4)c3c2)c1Cl [Example 212, 3-[6-(2-azaspiro[3.3]-heptan-2-yl)-3-pyridyl]-5-[(1R)-1-(3,5-dichloro-2-methyl-4-pyridyl)ethoxy]-1H-indazole] | 20 to 100 | 100 to 300 | 1 to 20 | 100 to 300 | > 300
COc1cc2[nH]nc(-c3cnc(N4CC5CC(C4)N5CC(C)(C)O)c(C)c3)c2cc1O[C@H](C)c1c(C)cnnc1C [Example 214, 1-(3-(5-(5-((R)-1-(3,5-dimethylpyridazin-4-yl)ethoxy)-6-methoxy-1H-indazol-3-yl)-3-methylpyridin-2-yl)-3,6-diazabicyclo[3.1.1]heptan-6-yl)-2-methylpropan-2-ol] | 1 to 20 | 1 to 20 | 1 to 20 | 1 to 20 | 1 to 20
Cc1cc(-c2n[nH]c3ccc(O[C@H](C)c4c(Cl)cnc(C)c4Cl)cc23)cnc1N1CC2(CCOC2)C1 [Example 217, 2-[5-[5-[(1R)-1-(3,5-dichloro-2-methyl-4-pyridyl)ethoxy]-1H-indazol-3-yl]-3-methyl-2-pyridyl]-6-oxa-2-azaspiro[3.4]octane] | 1 to 20 | 20 to 100 | 1 to 20 | 1 to 20 | 100 to 300
COc1cc2[nH]nc(-c3cnc(N4CC5(COC5)C4)c(C#N)c3)c2cc1O[C@H](C)c1c(C)cnnc1C [Example 218, (R)-5-(5-(1-(3,5-dimethylpyridazin-4-yl)ethoxy)-6-methoxy-1H-indazol-3-yl)-2-(2-oxa-6-azaspiro[3.3]heptan-6-yl)nicotinonitrile] | 20 to 100 | 20 to 100 | 1 to 20 | 1 to 20 | 20 to 100
COc1cc2[nH]nc(-c3cnc(N4CC5(COC5)C4)c(C)c3)c2cc1O[C@H](C)c1c(C)cnnc1C [Example 219, (R)-6-(5-(5-(1-(3,5-dimethylpyridazin-4-yl)ethoxy)-6-methoxy-1H-indazol-3-yl)-3-methylpyridin-2-yl)-2-oxa-6-azaspiro[3.3]heptane] | 1 to 20 | 1 to 20 | 1 to 20 | 1 to 20 | 20 to 100
COc1cc2[nH]nc(-c3ccc(N4CCCC4)nc3)c2cc1O[C@H](C)c1c(Cl)cnc(C)c1Cl [Example 220, 5-[(1R)-1-(3,5-dichloro-2-methyl-4-pyridyl)ethoxy]-6-methoxy-3-(6-pyrrolidin-1-yl-3-pyridyl)-1H-indazole] | 1 to 20 | 20 to 100 | 1 to 20 | 1 to 20 | 20 to 100

Other lines, results leading:

Kd (FGFR3) [nM] | Kd (FGFR2) [nM] | Kd (FGFR3 (V555M)) [nM] | Kd (FGFR4) [nM] | Kd (FGFR1) [nM] | Structure (SMILES)
1 to 20 | 20 to 100 | 1 to 20 | 1 to 20 | 20 to 100 | C[C@@H](Oc1ccc2[nH]nc(-c3ccc(N4CC5(C4)CN(S(C)(=O)=O)C5)nc3)c2c1)c1c(Cl)cnc(F)c1Cl [Example 197, 5-[(1R)-1-(3,5-dichloro-2-fluoro-4-pyridyl)ethoxy]-3-[6-(2-methylsulfonyl-2,6-diazaspiro[3.3]heptan-6-yl)-3-pyridyl]-1H-indazole]
100 to 300 | > 300 | 20 to 100 | > 300 | > 300 | COC(=O)N1CC2(C1)CN(c1ccc(-c3n[nH]c4ccc(O[C@@H](C)c5c(Cl)cnc(F)c5Cl)cc34)cn1)C2 [Example 198, methyl 6-[5-[5-[(1S)-1-(3,5-dichloro-2-fluoro-4-pyridyl)ethoxy]-1H-indazol-3-yl]-2-pyridyl]-2,6-diazaspiro[3.3]heptane-2-carboxylate]
100 to 300 | > 300 | 20 to 100 | > 300 | > 300 | C[C@H](Oc1ccc2[nH]nc(-c3ccc(N4CC5(C4)CN(S(C)(=O)=O)C5)nc3)c2c1)c1c(Cl)cnc(F)c1Cl [Example 199, 5-[(1S)-1-(3,5-dichloro-2-fluoro-4-pyridyl)ethoxy]-3-[6-(2-methylsulfonyl-2,6-diazaspiro[3.3]heptan-6-yl)-3-pyridyl]-1H-indazole]
1 to 20 | 1 to 20 | 1 to 20 | 1 to 20 | 20 to 100 | Cc1ncc(Cl)c([C@@H](C)Oc2ccc3[nH]nc(-c4ccc(N5CC6(COC6)C5)nc4)c3c2)c1Cl [Example 201, 6-[5-[5-[(1R)-1-(3,5-dichloro-2-methyl-4-pyridyl)ethoxy]-1H-indazol-3-yl]-2-pyridyl]-2-oxa-6-azaspiro[3.3]heptane]
1 to 20 | 1 to 20 | 1 to 20 | 1 to 20 | 20 to 100 | C[C@@H](Oc1ccc2[nH]nc(-c3ccc(N4CC5(COC5)C4)nc3)c2c1)c1c(Cl)cnc(F)c1Cl [Example 203, 6-[5-[5-[(1R)-1-(3,5-dichloro-2-fluoro-4-pyridyl)ethoxy]-1H-indazol-3-yl]-2-pyridyl]-2-oxa-6-azaspiro[3.3]heptane]
1 to 20 | 1 to 20 | 1 to 20 | 20 to 100 | 20 to 100 | C[C@@H](Oc1ccc2[nH]nc(-c3ccc(N4CC5(CCOC5)C4)nc3)c2c1)c1c(Cl)cnc(F)c1Cl [Example 204, (R)-2-(5-(5-(1-(3,5-dichloro-2-fluoropyridin-4-yl)ethoxy)-1H-indazol-3-yl)pyridin-2-yl)-6-oxa-2-azaspiro[3.4]octane]
1 to 20 | 1 to 20 | 1 to 20 | 1 to 20 | 20 to 100 | Cc1ncc(Cl)c([C@@H](C)Oc2ccc3[nH]nc(-c4ccc(N5CC6(CCOC6)C5)nc4)c3c2)c1Cl [Example 216, 2-[5-[5-[(1R)-1-(3,5-dichloro-2-methyl-4-pyridyl)ethoxy]-1H-indazol-3-yl]-2-pyridyl]-6-oxa-2-azaspiro[3.4]octane]
